Experimental data reported in patent US5162361A, “Method of treating diseases associated with elevated levels of interleukin 1” (priority 1990, dated 1992).

How the values were obtained:
[1] = system: oxazolone induced hypersensitivity; assay: Ear swelling response to oxazolone (delayed-type hypersensitivity); format: in vivo, mice; conditions: pentamidine isethionate (heading), epicutaneous at time of oxazolone challenge, FIG. 5
Procedure: All groups were sensitized with 25 μl of 2.0% oxazolone on day 0 on the shaved dorsal surface of the back. On day 5, each group was treated with 10 μl of pentamidine on each side of the right ear immediately prior to challenge with 10 μl of 0.5% oxazolone on each side of the right ear. The left ear was treated at same time with the oxazolone vehicle (4:1 acetone:olive oil) and in the same manner as the challenged ear. Ear thickness was determined before, 24 and 48 hours after challenge. The concentration of pentamidine for each group was as follows:
Group 1--80 μg/ear pentamidine
Group 2--40 μg/ear pentamidine
Group 3--20 μg/ear pentamidine
Group 4--10 μg/ear pentamidine
Group 5--5 μg/ear pentamidine
Group 6--no treatment (oxazolone positive control)

membrane IL-1 = assay: Effect on membrane IL-1 (mIL-1 bioassay); format: cell-based, rat; conditions: LPS 5 ng/ml, 24 h, FIG. 4
Procedure: Membrane IL-1 was assayed as previously described (E. A. Kurt-Jones et al, Proc. Natl. Acad. Sci. USA, 82, 1204 (1985)). 10^5 cells were cultured in media and 10% FCS with or without pentamidine at varying concentrations and LPS at 5 ng/ml for 24 hours and then fixed to the bottom of the 96 well plates with paraformaldehyde. The IL-1 bioassay was then performed as described in Example 1.

**Q.** How did the “Hypersensitivity response as measured by ear swelling” value [1] turn out when `N=C(N)c1ccc(OCCCCCOc2ccc(C(=N)N)cc2)cc1` [Pentamidine, 1,5-bis(4-amidinophenoxy)pentane] was run?
**A.** statistically significant (p<0.001) reduction in the hypersensitivity response

**Q.** And the “Amount of bioactive membrane IL-1 (mIL-1)” value (membrane IL-1)?
**A.** increased in a dose related manner
